Measurements taken from patent US6410792B1, “Amide derivatives and methods for using the same as selective neuropeptide Y receptor antagonists” (Bayer Corporation, priority 1997, dated 2002).
Structures can show the parent of a compound that is named as a salt. Where two headings read alike, the source gives them in different places.

Tests used:
[1] = target: T1, Y2 receptor (Homo sapiens, UniProt P49146); assay: Y2 receptor binding assay ([125I]PYY, membrane protein); conditions: membrane protein, read-out: hNPY2 IC50
T1 sequence (P49146 1-381): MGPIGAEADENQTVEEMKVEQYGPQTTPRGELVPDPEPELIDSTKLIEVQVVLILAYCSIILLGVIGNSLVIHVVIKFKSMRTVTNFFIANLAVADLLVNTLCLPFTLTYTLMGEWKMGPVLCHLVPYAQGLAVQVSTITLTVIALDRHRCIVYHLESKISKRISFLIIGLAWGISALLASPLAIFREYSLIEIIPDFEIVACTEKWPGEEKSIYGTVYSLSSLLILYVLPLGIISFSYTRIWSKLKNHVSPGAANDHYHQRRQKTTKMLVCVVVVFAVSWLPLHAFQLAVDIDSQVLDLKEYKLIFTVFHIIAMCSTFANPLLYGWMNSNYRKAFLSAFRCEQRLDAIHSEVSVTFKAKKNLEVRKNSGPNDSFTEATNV
How it was run: (§1)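 Filtration binding with membrane protein and drug dilution, 2 h at room temperature with mixing, radioactivity counted by gamma or scintillation. Y2: 25 pM [125I]PYY in Krebs-Ringer bicarbonate pH 7.4 with 0.01% BSA, nonspecific by 1 μM NPY. Y4/PP1: 50 pM [125I]hPP in HEPES-buffered saline pH 7.4 with protease inhibitors and 0.3% BSA, nonspecific by 1 μM hPP.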

[2] = target: T2, Human NPY5 receptor (Homo sapiens, UniProt Q15761); assay: Human NPY5 receptor binding assay ([125I]PYY, membrane protein)
T2 sequence (Q15761 1-445): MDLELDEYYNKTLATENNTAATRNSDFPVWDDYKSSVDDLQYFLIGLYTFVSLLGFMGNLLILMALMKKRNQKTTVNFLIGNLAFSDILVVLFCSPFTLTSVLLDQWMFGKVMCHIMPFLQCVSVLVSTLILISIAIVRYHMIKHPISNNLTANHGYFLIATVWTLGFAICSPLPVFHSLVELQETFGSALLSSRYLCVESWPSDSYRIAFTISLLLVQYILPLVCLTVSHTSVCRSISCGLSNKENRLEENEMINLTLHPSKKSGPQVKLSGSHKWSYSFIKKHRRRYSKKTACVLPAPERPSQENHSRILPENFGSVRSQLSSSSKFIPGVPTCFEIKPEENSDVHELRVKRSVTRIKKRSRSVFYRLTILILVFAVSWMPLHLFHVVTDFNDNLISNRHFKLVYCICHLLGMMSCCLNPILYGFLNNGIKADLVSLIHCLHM
How it was run: (§2)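 Membrane protein was incubated with 75-100 pM porcine [125I]PYY and test compound for 2 hours at room temperature with constant mixing in pH 7.4 Tris buffer containing NaCl, KCl, CaCl2, MgSO4, 0.1% BSA and bacitracin. Nonspecific binding was defined with 1 μM PYY. Bound radioactivity was counted after filtration.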

[3] = target: T3, Rat NPY5 receptor (Rattus norvegicus, UniProt Q63634); assay: Rat NPY5 cyclase assay (in vitro functional assay, forskolin-stimulated adenylate cyclase, cAMP); type: cell-based; conditions: percentage of forskolin-stimulated adenylate cyclase; for activity at 10 µM: 20 min, read-out: rNPY5 % FSAC (10 μM)
T3 sequence (Q63634 1-445): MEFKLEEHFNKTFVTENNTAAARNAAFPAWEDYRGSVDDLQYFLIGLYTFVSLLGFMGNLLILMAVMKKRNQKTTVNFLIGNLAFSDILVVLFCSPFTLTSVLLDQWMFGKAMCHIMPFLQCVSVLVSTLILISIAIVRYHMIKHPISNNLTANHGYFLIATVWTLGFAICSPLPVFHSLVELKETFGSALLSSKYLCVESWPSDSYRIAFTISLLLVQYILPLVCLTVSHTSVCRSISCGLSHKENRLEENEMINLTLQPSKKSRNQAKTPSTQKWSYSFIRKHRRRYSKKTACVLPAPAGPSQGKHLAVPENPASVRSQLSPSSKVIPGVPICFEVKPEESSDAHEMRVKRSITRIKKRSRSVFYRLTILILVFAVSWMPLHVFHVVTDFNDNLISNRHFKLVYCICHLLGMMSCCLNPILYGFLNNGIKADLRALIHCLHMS
Procedure: D. Rat NYP5 Cyclase Assay (In Vitro Functional Assay)
Cells stably expressing the rat NPY5 receptor are resuspended in serum-free DMEM containing 10 mM HEPES (pH 7.4) and 1 mM isobutylmethylxanthine (IBMX). […] forskolin and drug dilution are then added to the cells. After a 20 minute incubation of the samples at 37° C, the assay is stopped by placing the samples in boiling water for 3 minutes. The cAMP produced in each sample is quantitated with a radioimmunoassay kit (NEN DuPont). Data are expressed as a percentage of forskolin-stimulated adenylate cyclase.

[4] = target: T3, Rat NPY5 receptor; assay: Rat NPY5 receptor binding assay ([125I]PYY, membrane protein)
How it was run: as §2

[5] = target: human Y4/PP1 receptor (Homo sapiens, UniProt P50391); assay: Human Y4/PP1 receptor binding assay ([125I]human PP, membrane protein)
How it was run: as §1

[6] = target: T4, Human NPY1 receptor (Homo sapiens, UniProt P25929); assay: Human NPY1 receptor binding assay ([125I]PYY, SK-N-MC cells)
T4 construct: host or cells: SK-N-MC cells
T4 sequence (P25929 1-384): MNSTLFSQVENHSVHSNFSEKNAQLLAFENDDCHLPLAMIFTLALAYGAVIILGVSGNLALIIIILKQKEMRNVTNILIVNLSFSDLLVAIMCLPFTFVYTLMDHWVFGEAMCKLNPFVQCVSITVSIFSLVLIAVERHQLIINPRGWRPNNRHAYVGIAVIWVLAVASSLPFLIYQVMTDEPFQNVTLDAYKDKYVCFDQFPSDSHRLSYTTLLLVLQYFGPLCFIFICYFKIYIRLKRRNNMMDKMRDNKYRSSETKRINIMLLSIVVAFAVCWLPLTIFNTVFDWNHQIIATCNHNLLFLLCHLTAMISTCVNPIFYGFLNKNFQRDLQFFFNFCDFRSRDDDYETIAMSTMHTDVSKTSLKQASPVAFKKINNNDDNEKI
How it was run: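 Confluent SK-N-MC cells preincubated 30 min at room temperature in serum-free DMEM/25 mM HEPES pH 7.3 with BSA, bacitracin and PMSF, then incubated 3 h at room temperature with compound and ~50 pM [125I]PYY. Nonspecific binding defined with 1 μM NPY; bound radioactivity counted after Triton X-100 lysis.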

[7] = [125I]PYY, read-out: hNPY5 IC50
[8] = [125I]PYY, read-out: rNPY5 IC50
[9] = [125I]human PP, membrane protein, read-out: hNPY4 IC50
[10] = [125I]PYY, SK-N-MC cells, read-out: hNPYI IC50

Chain of human Y4/PP1 receptor (P50391 whole entry): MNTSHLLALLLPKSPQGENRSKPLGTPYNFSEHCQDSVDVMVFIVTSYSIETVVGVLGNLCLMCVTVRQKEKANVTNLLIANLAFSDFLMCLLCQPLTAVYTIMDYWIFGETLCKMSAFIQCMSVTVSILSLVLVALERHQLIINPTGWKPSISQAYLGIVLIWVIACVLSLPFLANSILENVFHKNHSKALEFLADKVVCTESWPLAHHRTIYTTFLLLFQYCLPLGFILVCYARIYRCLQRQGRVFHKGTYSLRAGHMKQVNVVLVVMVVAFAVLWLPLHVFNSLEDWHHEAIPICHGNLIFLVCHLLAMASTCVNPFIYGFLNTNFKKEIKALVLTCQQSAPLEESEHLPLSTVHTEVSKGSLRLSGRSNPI

Row | Compound | IC50 ([1]; [125I]PYY) [nM] | IC50 [2, 7] [nM] | IC50 [4, 8] [nM] | IC50 [5, 9] [nM] | IC50 [6, 10] [nM] | melting point [°C] | other results
1 | O=C(CN1CCC(O)(c2ccccc2)CC1)Nc1ccc(C2CCCCC2)cc1 [Compound 26, N-(4-Cyclohexyl-phenyl)-2-(4-hydroxy-4-phenyl-piperidin-1-yl)-acetamide] |  |  |  |  |  |  | IC50 ([1]; [125I]PYY binding): > 5000 nM; IC50 ([2]; hNPY5 IC50, [125I]PYY binding): 93 nM; activity at 10 µM ([3]; compound at 10 μM): 111%; IC50 ([4]; rNPY5 IC50, [125I]PYY binding): 37 nM
2 | CNC1(C(N)=O)CCN(CC(=O)Nc2ccc(C3CCCCC3)cc2)CC1 [Compound 30, 1-[(4-Cyclohexyl-phenylcarbamoyl)-methyl]-4-methylamino-piperidin-4-carboxylic acid amide] |  |  |  |  |  |  | IC50 ([1]; [125I]PYY binding): > 5000 nM; IC50 ([2]; [125I]PYY binding, read-out: hNPY5 IC50): 60 nM; activity at 10 µM ([3]; compound at 10 μM): 107%; IC50 ([4]; [125I]PYY binding, read-out: rNPY5 IC50): 13 nM
3 | Cc1ccc(OC(=O)c2ccc(NC(=O)CN3CCC(n4c(=O)[nH]c5ccccc54)CC3)cc2)cc1 [Compound 264, 4-{2-[4-(2-Oxo-2,3-dihydro-benzoimidazol-1-yl)-piperidin-1-yl]-acetylamino}-benzoic acid P-tolyl ester; hydrochloride] | > 5000 | 180 | 100 | > 5000 |  |  | activity at 10 µM ([3]; 10 μM): 139%
4 | Cl.O=C(CN1CCC(n2c(=O)[nH]c3ccccc32)CC1)Nc1ccc(C(=O)C(=O)c2ccccc2)cc1 [Compound 265] |  |  |  |  |  |  | rNPY5 % FSAC (10 μM) ([3]; 10 μM): 90%
5 | Cl.O=C(CN1CCC(n2c(=O)[nH]c3ccccc32)CC1)NCC1CCCCC1 [Compound 282, N-Cyclohexylmethyl-2-[4-(2-oxo-2,3-dihydro-benzoimidazol-1-yl)-piperidin-1-yl]-acetamide; hydrochloride] | > 5000 | 380 | 313 | > 5000 | > 5000 | 196 to 197 | 
6 | CC(C)OCCCNC(=O)CN1CCC(n2c(=O)[nH]c3ccccc32)CC1.Cl [Compound 283, N-(3-Isopropoxy-propyl)-2-[4-(2-oxo-2,3-dihydro-benzoimidazol-1-yl)-piperidin-1-yl]-acetamide; hydrochloride] | > 5000 | > 10000 | > 10000 | > 5000 | > 5000 | 237 to 238 | 
7 | COCCNC(=O)CN1CCC(n2c(=O)[nH]c3ccccc32)CC1 [Compound 284, N-(2-Methoxy-ethyl)-2-[4-(2-oxo-2,3-dihydro-benzoimidazol-1-yl)-piperidin-1-yl]-acetamide] | > 5000 | > 10000 | > 10000 | > 5000 | > 5000 | 77 to 78 | 
8 | CC(=O)NC1CCN(CC(=O)Nc2ccc(C3CCCCC3)cc2)C1.O=C(O)C(=O)O (centres unmarked) [Compound 293, 2-(3-Acetylamino-pyrrolidin-1-yl)-N-(4-cyclohexyl-phenyl)-acetamide; compound with oxalic acid] | > 5000 | 190 | 170 | > 5000 | > 5000 | 122 | 
9 | CCCOC1(c2ccccc2)CCN(CC(=O)Nc2ccc(C3CCCCC3)cc2)CC1 [Compound 294, N-(4-Cyclohexyl-phenyl)-2-(4-phenyl-4-propoxy-piperidin-1-yl)-acetamide; hydrochloride] | > 5000 |  |  | > 5000 | > 5000 |  | IC50 ([2]; hNPY5 IC50, [125I]PYY): 51 nM; activity at 10 µM ([3]; 10 μM): 101%; IC50 ([4]; rNPY5 IC50, [125I]PYY): 50 nM
10 | N#CC1(c2ccccc2)CCN(CC(=O)Nc2ccc(C3CCCCC3)cc2)CC1 [Compound 295, 2-(4-Cyano-4-phenyl-piperidin-1-yl)-N-(4-cyclohexyl-phenyl)-acetamide; hydrochloride] | > 5000 | 4.7 |  |  |  |  | activity at 10 µM ([3]; 10 μM): 101%; IC50 ([4]; rNPY5 IC50, [125I]PYY): 4.5 nM; IC50 [6]: > 5000 nM; IC50 [5]: > 5000 nM
11 | Cl.O=C(CN1CCC(n2c(=O)[nH]c3ccccc32)CC1)Nc1ccc2c(c1)C(=O)c1ccccc1-2 [Compound 306, 2-[4-(2-Oxo-2,3-dihydro-benzoimidazol-1-yl)-piperidin-1-yl]-N-(9-oxo-9H-fluoren-2-yl)-acetamide; hydrochloride] | > 5000 | 44 | 35 | > 5000 | > 5000 | 204 | 
12 | O=C(CN1CCC(n2c(=O)[nH]c3ccccc32)CC1)Nc1cccc2c1-c1ccccc1C2=O [Compound 308, 2-[4-(2-Oxo-2,3-dihydro-benzoimidazol-1-yl)-piperidin-1-yl]-N-(9-oxo-9H-fluoren-4-yl)-acetamide] | > 5000 | 360 | 300 | > 5000 | > 5000 | 205 | 
13 | Cl.O=C(CN1CCC(n2c(=O)[nH]c3ccccc32)CC1)Nc1ccc2oc3ccccc3c2c1 [Compound 310, N-Dibenzofuran-2-yl-2-[4-(2-oxo-2,3-dihydro-benzoimidazol-1-yl)-piperidin-1-yl]-acetamide; hydrochloride] | > 5000 | 34 | 34 | > 5000 | > 5000 | 186 | 
14 | O=C(Nc1ccc(-c2ccccc2)cc1)C(c1ccccc1)N1CCC(n2c(=O)[nH]c3ccccc32)CC1 (centres unmarked) [Compound 312, N-Biphenyl-4-yl-2-[4-(2-oxo-2,3-dihydro-benzoimidazol-1-yl)-piperidin-1-yl]-2-phenyl-acetamide] | > 5000 |  |  | > 5000 | > 5000 | 207 to 210 | IC50 ([2]; hNPY5 IC50, [125I]PYY): 32 nM; IC50 ([4]; rNPY5 IC50, [125I]PYY): 24 nM
